Source: US7700353B2, “Compositions and methods for inducing apoptosis in tumor cells” (E-P Therapeutics, Inc., priority 1998, dated 2010)

Legend:
[1] = test system: 293GP and MCF-7 cells; test: Effect of RNA/protein synthesis inhibitors on Ea-4 induced morphological change; type: cell-based, human; details: 24 hours
Procedure: To study the effects of α-aminitin and cycloheximide, known inhibitors of RNA and protein synthesis, respectively, on morphological changes induced by rtEa-4-peptide, about 1-2×10^5 of ZR-75-1 and 293GP cells, re-suspended in their respective basal medium without FBS, were plated in a 6-well culture chamber. Prior to plating the cells, an acid-washed coverslip was placed in each well of the culture chamber. Each culture was treated with recombinant trout Ea-4-peptide at 0.8 µM, and with either α-aminitin at 10 µg/mL (an RNA synthesis inhibitor) or with cycloheximide at 1.0 µg/mL (a protein synthesis inhibitor). The cell cultures were incubated at 37° C. under a humidified atmosphere of 5% CO2. Coverslips were removed from the culture chamber 24 hours after initiation of the treatment and observed under an Olympic inverted microscope equipped with differential interference phase contrast objective lenses (final magnification, 200×). The viability of the inhibitor-treated cells was further determined by a dye extrusion assay.
To determine whether the morphological changes induced by the Ea-4 peptides requires synthesis of new proteins or of RNA, 293GP and MCF-7 cells were cultured under the same conditions as described above. Ea-4 peptide-induced morphological changes in 293GP and MCF-7 cells were abolished by treatment with cycloheximide or α-aminitin (FIG. 4).

[2] = test system: 293GP or ZR-75-1 cells; test: Morphological change by Ea-2, Ea-3, Ea-4 peptides; type: cell-based, human; details: 0.8 μM, 24 hours
Procedure: (§1) Approximately 1-2×10^5 of MCF-7, ZR-75-1, HT-29, HepG2, 293GP, HC or SK-N-F1 cells re-suspended in their respective basal medium without fetal bovine serum (FBS) were plated in a 6-well culture chamber. Prior to plating cells, an acid-washed coverslip was placed in each well of the culture chamber. Recombinant rainbow trout E-peptides (rtEa-2, rtEa-3 or rtEa-4 peptide at 0.8 µM), human IGF-I (hIGF-1, 2.5 nM) or the same amount of control protein was added to each well and the cell cultures were incubated at 37° C. under a humidified atmosphere of 5% CO2. The control protein was prepared from E. coli cells carrying the expression plasmid but without the E-peptide gene according to the purification method described by Tian et al. (1999). Coverslips were removed from the culture chamber 24 hours after initiation of the treatment and observed under an Olympic inverted microscope equipped with differential interference phase contrast objective lenses or phase contrast objective lens (final magnification, 200×). The morphological change assay was performed at least 10 times with different batches of Ea-4 peptide preparations.
Cells were again cultured as described above. Twenty-four hours after treatment with 0.8 µM of E-peptides or the control protein, the cells were observed under an Olympic inverted microscope equipped with differential interference phase contrast objective lenses (200× magnification). […] To confirm this hypothesis, synthetic peptides specific to Ea-1-, Ea-2-, Ea-3- and Ea-4-peptide (Ea-1sp, Ea-2sp, Ea-3sp and Ea-4sp) specific sequence (see FIG. 1) were prepared and tested for their activities to induce morphological change in ZR-75-1 cells. For FIG. 6, cells were cultured in F12/DME medium without FBS as described above. Twenty-four hours after treatment with 0.8 µM of synthetic peptide containing Ea-1 sp, Ea-2sp, Ea-3sp or Ea-4sp specific sequence or the control protein, the cells were observed under an Olympic inverted microscope equipped with differential interference phase contrast objective lenses (200× magnification).

[3] = test system: cultured BALB/3T3 fibroblast; details: recombinant peptides; cited from earlier work
[4] = test system: NIH 3T3 cells and caprine mammary epithelium cells (CMEC); details: recombinant peptides; cited from earlier work
[5] = test system: MCF-7, HT-29, HepG2, ZR-75-1, SK-N-F1, or HC cells; test: Morphological change assay in tumor cell lines; type: cell-based, human and fish; details: 2.5 nM, 24 hours, serum-free basal medium
Procedure: as §1
Oncogenic transformed or established cancer cells derived from human and fish (MCF-7, HT-29, HepG2, ZR-75-1, SK-N-F1, or HC cells) were plated in their respective serum-free basal medium supplemented with 0.8 µM of the trout recombinant Ea-4-peptide, with the control protein, or with 2.5 nM of the recombinant hlGF-I and the cultures were examined 24 hours later under an inverted microscope equipped with differential interference phase contrast objectives. […] The rtEa-4 peptide treated cells developed several pseudopodia-like structures to establish contact with neighboring cells similar to that seen in untransformed or non-malignant cells.
Because each of these tumor cell lines obtained from ATCC contains a mixed population of tumorous and nontumorous cells, only between 25-40% of the cells from each cell line responded to induction by rtEa-4-peptide. […]

[6] = test system: SK-N-F1 neuroblastoma cells; test: Neurite-like process outgrowth / morphological differentiation; type: cell-based, human; details: 5 nM
Procedure: Cells under various treatment conditions were maintained at 37° C. in a 5% CO2 incubator and observed from 30 minutes to 72 hours after incubation (synthetic human Ea- and Eb-peptide were chemically synthesized at the Biotechnology Center, University of Connecticut). For treatment with synthetic hEa, hEb peptide or hlGF-I, 1×10^5 cells were plated in each well of a 12-well culture plate in DMEM/F12 (1:1) supplemented with 0.4-3.2 µM of synthetic hEa-, hEb-peptide and/or 5-10 nM of hlGF-I.
Neuroblastoma SK-N-F1 cells (10^5) were seeded into 12-well culture plates in DMEM/F12 (1:1) supplemented with 0-3.2 µM of synthetic hEb-peptide, or buffer control, and incubated at 37° C. in a 5% CO2 humidified incubator.
Cell images were taken by random sampling at various time points using a MicroMAX CCD camera (Princeton Instruments, Bozeman, Mont.). Approximately 1000 cells were analyzed from each treatment, carried out in triplicate. Cells with neurites longer than one cell body diameter (>20 µm for SK-N-F1 cells) were scored as positive neurite-bearing (Fagerstrom, et al., Cell Growth Differ., 7: 775-85, 1996; Morrione, et al., Cancer Res. 60: 2263-72, 2000). The percentage of neurite-bearing cells and the respective length of neurites were measured with reference to a stage micrometer and analyzed using the public domain NIH Image program (developed at the U.S. National Institutes of Health and available on the Internet at http://rsb.info.nih.gov/nih-image).
To further characterize the dose-response relationship and time course of hEb peptide in inducing neurite-like process outgrowth, SK-N-F1 neuroblastoma cells were treated with various amounts (0 to 3.2 µM) of hEb peptide over a course of 72 hours. Images of cells were taken by random sampling after 1 h, 6 h, 24 h, 48 h and 72 h of incubation (see FIG. 11B). The average length of neurite-like process outgrowth was measured by random sampling of more than 1000 cells at various time points. The neurite-like processes started to be visible as early as 0.5-1 hour after the addition of hEb peptide. The effect of hEb peptide in inducing neurite-like outgrowth was dose-dependent, as evident from a comparison of cells treated with 0.4 µM hEb peptide with those treated with 0.8-3.2 µM hEb peptide over 24-72 hours. The maximum effect of hEb peptide was observed 48 hours after the addition of 3.2 µM hEb peptide, with an average neurite length of 50 to 60 µm (Table 1, below).

[7] = test system: neuroblastoma SK-N-F1 cells; test: Soft agar colony formation (hEb peptide); type: cell-based, human; details: 5 nM
Procedure: The effect of hEb-peptide on in vitro colony formation was tested in the presence or absence of either the mature hlGF-I or fetal bovine serum (FIG. 12). Human neuroblastoma SK-N-F1 cells (10^4) were mixed with 0.4% soft agar supplemented with or without hEb peptide (3.2 µM), IGF-I (5 nM) and/or fetal bovine serum (2.5%), as indicated. The cell mixtures were seeded on top of a solidified basal medium DMEM/F12 (1:1) containing 0.5% agar. Medium supplemented with various peptides or serum were overlaid on top of the solidified cell layer followed by a two-week period incubation at 37° C. in a 5% CO2 humidified incubator. The percentage of cells formed into colonies with a diameter greater than 100 µm Macpherson, Tissue culture methods and applications, pp 276-80: N.Y. Academic Press, 1973) were scored in triplicate and subjected to Student t-test analysis. At least three independent assays under each treatment conditions were carried out.

## .alpha.-aminitin
[1]; α-aminitin 10 μg/mL with Ea-4 0.8 μM
  Ea-4 peptide-induced morphological changes: abolished

## rtEa-2: recombinant Ea-2 peptide of rainbow trout pro-IGF-I, 47 amino acid residues (SEQ ID NO: 4) (RSVRAQRHTDMPRTPKKPLSGHSHPSCKEVHQKNSSRGNTGGRNYRM; Oncorhynchus mykiss)
[2]
  induction of morphological change: able to induce morphological change
[3]
  mitogenic activity: possess mitogenic activity
[4]
  mitogenic activity: possess mitogenic activity

## hlGF-I: recombinant mature human insulin-like growth factor I [reference compound]
[5]
  morphological change: rounded morphology
[6]
  morphological change: remained rounded and formed aggregated clusters
[7]
  colony formation: strongly stimulated colony formation

## C[C@@H]1C[C@@H]([C@H](O)CC2CC(=O)NC(=O)C2)C(=O)[C@@H](C)C1 [cycloheximide]
[1]; cycloheximide 1.0 μg/mL with Ea-4 0.8 μM
  Ea-4 peptide-induced morphological changes: abolished

B1: rtEa-3: recombinant Ea-3 peptide of rainbow trout pro-IGF-I, 62 amino acid residues (SEQ ID NO: 3) (protein)
chain: RSVRAQRHTDMPRTPKVSTAVQSVDRGTERRTAQHPDKTKPKKEVHQKNSSRGNTGGRNYRM
modifications: Oncorhynchus mykiss
[2]
  induction of morphological change: failed to induce any visible morphological change
[3]
  mitogenic activity: possess mitogenic activity
[4]
  mitogenic activity: possess mitogenic activity
